{"source": "patent US20220096614A1", "about": "“PEPTIDE-INDUCED NK CELL ACTIVATION” (University of Southampton, priority 2019, published 2022)", "system": "KIR2DS2", "sequence (P43631 22-245 limits assumed)": "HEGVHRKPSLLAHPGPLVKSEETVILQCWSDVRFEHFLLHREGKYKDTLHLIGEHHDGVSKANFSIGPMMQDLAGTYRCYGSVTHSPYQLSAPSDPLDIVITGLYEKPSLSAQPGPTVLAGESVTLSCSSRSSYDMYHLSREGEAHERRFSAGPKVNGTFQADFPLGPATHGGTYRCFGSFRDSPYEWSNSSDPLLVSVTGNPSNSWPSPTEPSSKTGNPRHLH", "sequence (P10321 25-366, further chain)": "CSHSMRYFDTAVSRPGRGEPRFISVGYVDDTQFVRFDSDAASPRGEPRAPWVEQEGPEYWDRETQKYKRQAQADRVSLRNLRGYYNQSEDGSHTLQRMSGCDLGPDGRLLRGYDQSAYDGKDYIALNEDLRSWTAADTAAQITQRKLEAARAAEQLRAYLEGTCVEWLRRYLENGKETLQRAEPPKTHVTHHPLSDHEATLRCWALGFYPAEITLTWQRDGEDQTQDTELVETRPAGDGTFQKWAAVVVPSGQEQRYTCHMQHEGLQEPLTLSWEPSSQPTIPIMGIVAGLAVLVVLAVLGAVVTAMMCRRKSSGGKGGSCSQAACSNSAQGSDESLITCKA", "sequence (P61769 21-119 partner)": "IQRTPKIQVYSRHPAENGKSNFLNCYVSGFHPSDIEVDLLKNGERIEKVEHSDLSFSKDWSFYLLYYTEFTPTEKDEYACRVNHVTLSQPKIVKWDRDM", "experiment": "KIR2DS2 tetramer staining of peptide-loaded 721.174 cells (flow cytometry)", "format": "binding", "settings": "721.174 cells loaded with peptide; KIR2DS2 tetramer conjugated to phycoerythrin; no peptide 10503", "from_the_text": "721.174 cells were loaded with peptide and then stained using a tetramer of KIR2DS2 conjugated to phycoerythrin. Shown is a flow cytometry histogram plot of the staining of the 721.174 cells in the presence or absence of peptide. Mean fluorescence intensitites are indicated: 14811 for NAPLVHATL versus 10503 for no peptide."}
{"sequence": "NAPLVHATL [peptide derived from Exportin-1 (XPO1)]", "values": [{"measurement": "Mean fluorescence intensity of KIR2DS2 tetramer staining", "value": 14811}]}
